#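 Cultured in 96-well plates, cells were exposed to test compound for 48 hours across five concentrations. TGI: concentration producing complete growth inhibition.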
# Assays:
# Test in all cases: NCI tumour cell line growth inhibition, 48 h
# A549 NSCLC = system: A549 NSCLC
# TK-10 renal = system: TK-10 renal
# UACC-257 melanoma = system: UACC-257 melanoma
# ACHN renal = system: ACHN renal
# DU-145 prostate = system: DU-145 prostate
# M14 melanoma = system: M14 melanoma
# NCI-H226 lung = system: NCI-H226 lung
# COLO 205 colon = system: COLO 205 colon
# KM12 colon = system: KM12 colon
# RXF 393 renal = system: RXF 393 renal
# SR leukemia = system: SR leukemia
# HCT-116 colon = system: HCT-116 colon
# NCI/ADR-RES ovarian = system: NCI/ADR-RES ovarian
# SK-MEL-28 melanoma = system: SK-MEL-28 melanoma
# SF-268 CNS = system: SF-268 CNS
# T-47D breast = system: T-47D breast
# NCI-H522 lung = system: NCI-H522 lung
# CAKI-1 renal = system: CAKI-1 renal
# OVCAR-3 ovarian = system: OVCAR-3 ovarian
# HOP-92 NSCLC = system: HOP-92 NSCLC
# MALME-3M melanoma = system: MALME-3M melanoma
# OVCAR-8 ovarian = system: OVCAR-8 ovarian
# 786-0 renal = system: 786-0 renal
# UACC-62 melanoma = system: UACC-62 melanoma
# MCF7 breast = system: MCF7 breast
# EKVX NSCLC = system: EKVX NSCLC
# PC-3 prostate = system: PC-3 prostate
# SK-MEL-5 melanoma = system: SK-MEL-5 melanoma
# SF-295 CNS = system: SF-295 CNS
# OVCAR-5 ovarian = system: OVCAR-5 ovarian
# HCT-15 colon = system: HCT-15 colon
# MOLT-4 leukemia = system: MOLT-4 leukemia
# K-562 leukemia = system: K-562 leukemia
# HS 578T breast = system: HS 578T breast
# LOX IMVI melanoma = system: LOX IMVI melanoma
# SF-539 CNS = system: SF-539 CNS
# UO-31 renal = system: UO-31 renal
# SK-MEL-2 melanoma = system: SK-MEL-2 melanoma
# NCI-H23 lung = system: NCI-H23 lung
# BT-549 breast = system: BT-549 breast
# SNB-75 CNS = system: SNB-75 CNS
# MDA-MB-435 = system: MDA-MB-435
# SNB-19 CNS = system: SNB-19 CNS
# OVCAR-4 ovarian = system: OVCAR-4 ovarian
# MDA-MB-231 breast = system: MDA-MB-231 breast
# IGROV1 ovarian = system: IGROV1 ovarian
# A498 renal = system: A498 renal
# HOP-62 NSCLC = system: HOP-62 NSCLC
# SK-OV-3 ovarian = system: SK-OV-3 ovarian
# RPMI-8226 leukemia = system: RPMI-8226 leukemia
# SW-620 colon = system: SW-620 colon
# NCI-H460 lung = system: NCI-H460 lung
# SN12C renal = system: SN12C renal
# MDA-N = system: MDA-N
# U251 CNS = system: U251 CNS
# HT29 colon = system: HT29 colon
# HCC-2998 colon = system: HCC-2998 colon
# HL-60(TB) leukemia = system: HL-60(TB) leukemia
# CCRF-CEM leukemia = system: CCRF-CEM leukemia
smiles,measurement,setting,value
c1cncc(CNc2ncn[nH]2)c1,TGI,A549 NSCLC,> 100 µM
same,TGI,TK-10 renal,> 100 µM
same,TGI,UACC-257 melanoma,> 100 µM
same,TGI,ACHN renal,> 100 µM
same,TGI,DU-145 prostate,> 100 µM
same,TGI,M14 melanoma,> 100 µM
same,TGI,NCI-H226 lung,> 100 µM
same,TGI,COLO 205 colon,> 100 µM
same,TGI,KM12 colon,> 100 µM
same,TGI,RXF 393 renal,> 100 µM
same,TGI,SR leukemia,> 100 µM
same,TGI,HCT-116 colon,> 100 µM
same,TGI,NCI/ADR-RES ovarian,> 100 µM
same,TGI,SK-MEL-28 melanoma,> 100 µM
same,TGI,SF-268 CNS,> 100 µM
same,TGI,T-47D breast,> 100 µM
same,TGI,NCI-H522 lung,> 100 µM
same,TGI,CAKI-1 renal,> 100 µM
same,TGI,OVCAR-3 ovarian,> 100 µM
same,TGI,HOP-92 NSCLC,> 100 µM
same,TGI,MALME-3M melanoma,> 100 µM
same,TGI,OVCAR-8 ovarian,> 100 µM
same,TGI,786-0 renal,> 100 µM
same,TGI,UACC-62 melanoma,> 100 µM
same,TGI,MCF7 breast,> 100 µM
same,TGI,EKVX NSCLC,> 100 µM
same,TGI,PC-3 prostate,> 100 µM
same,TGI,SK-MEL-5 melanoma,> 100 µM
same,TGI,SF-295 CNS,> 100 µM
same,TGI,OVCAR-5 ovarian,> 100 µM
same,TGI,HCT-15 colon,> 100 µM
same,TGI,MOLT-4 leukemia,> 100 µM
same,TGI,K-562 leukemia,> 100 µM
same,TGI,HS 578T breast,> 100 µM
same,TGI,LOX IMVI melanoma,> 100 µM
same,TGI,SF-539 CNS,> 100 µM
same,TGI,UO-31 renal,> 100 µM
same,TGI,SK-MEL-2 melanoma,> 100 µM
same,TGI,NCI-H23 lung,> 100 µM
same,TGI,BT-549 breast,> 100 µM
same,TGI,SNB-75 CNS,> 100 µM
same,TGI,MDA-MB-435,> 100 µM
same,TGI,SNB-19 CNS,> 100 µM
same,TGI,OVCAR-4 ovarian,> 100 µM
same,TGI,MDA-MB-231 breast,> 100 µM
same,TGI,IGROV1 ovarian,> 100 µM
same,TGI,A498 renal,> 100 µM
same,TGI,HOP-62 NSCLC,> 100 µM
same,TGI,SK-OV-3 ovarian,> 100 µM
same,TGI,RPMI-8226 leukemia,> 100 µM
same,TGI,SW-620 colon,> 100 µM
same,TGI,NCI-H460 lung,> 100 µM
same,TGI,SN12C renal,> 100 µM
same,TGI,MDA-N,> 100 µM
same,TGI,U251 CNS,> 100 µM
same,TGI,HT29 colon,> 100 µM
C[C@H](CCC1=NCCN1)[C@H]1CC[C@H]2[C@@H]3CC[C@@H]4C[C@H](O)CC[C@]4(C)[C@H]3C[C@H](O)[C@]12C,TGI,TK-10 renal,26.9 µM
same,TGI,UACC-257 melanoma,28.7 µM
same,TGI,ACHN renal,30.5 µM
same,TGI,DU-145 prostate,28.9 µM
same,TGI,M14 melanoma,35.6 µM
same,TGI,NCI-H226 lung,31 µM
same,TGI,COLO 205 colon,23.8 µM
same,TGI,KM12 colon,24.1 µM
same,TGI,RXF 393 renal,35.9 µM
same,TGI,HCC-2998 colon,27.6 µM
same,TGI,HCT-116 colon,> 100 µM
same,TGI,NCI/ADR-RES ovarian,> 100 µM
same,TGI,SK-MEL-28 melanoma,34.6 µM
same,TGI,SF-268 CNS,20.5 µM
same,TGI,T-47D breast,30.6 µM
same,TGI,NCI-H522 lung,19.3 µM
same,TGI,CAKI-1 renal,43.8 µM
same,TGI,OVCAR-3 ovarian,24.5 µM
same,TGI,HOP-92 NSCLC,30.9 µM
same,TGI,MALME-3M melanoma,27.9 µM
same,TGI,OVCAR-8 ovarian,28.8 µM
same,TGI,786-0 renal,33 µM
same,TGI,UACC-62 melanoma,26.3 µM
same,TGI,MCF7 breast,28.5 µM
same,TGI,EKVX NSCLC,34.4 µM
same,TGI,PC-3 prostate,20.7 µM
same,TGI,SK-MEL-5 melanoma,24.5 µM
same,TGI,SF-295 CNS,29 µM
same,TGI,OVCAR-5 ovarian,28.1 µM
same,TGI,HCT-15 colon,> 100 µM
same,TGI,MOLT-4 leukemia,16.1 µM
same,TGI,K-562 leukemia,21 µM
same,TGI,HS 578T breast,27.8 µM
same,TGI,LOX IMVI melanoma,29.3 µM
same,TGI,SF-539 CNS,29.5 µM
same,TGI,UO-31 renal,52.6 µM
same,TGI,SK-MEL-2 melanoma,26.7 µM
same,TGI,NCI-H23 lung,27 µM
same,TGI,BT-549 breast,33.1 µM
same,TGI,HL-60(TB) leukemia,36 µM
same,TGI,SNB-75 CNS,13.5 µM
same,TGI,MDA-MB-435,28.9 µM
same,TGI,SNB-19 CNS,21 µM
same,TGI,OVCAR-4 ovarian,33.6 µM
same,TGI,MDA-MB-231 breast,34 µM
same,TGI,IGROV1 ovarian,21.9 µM
same,TGI,A498 renal,65.1 µM
same,TGI,HOP-62 NSCLC,28.9 µM
same,TGI,CCRF-CEM leukemia,30.4 µM
same,TGI,SK-OV-3 ovarian,31.9 µM
same,TGI,RPMI-8226 leukemia,30 µM
same,TGI,SW-620 colon,44.6 µM
same,TGI,NCI-H460 lung,31.2 µM
same,TGI,SN12C renal,34 µM
same,TGI,MDA-N,31 µM
same,TGI,U251 CNS,23.7 µM
same,TGI,HT29 colon,22.3 µM
